Reference: patent publication US8273780B2, “Polycyclic antagonists of lysophosphatidic acid receptors” (Amira Pharmaceuticals, Inc., priority 2009, dated 2012)

Test system: human A2058 melanoma cells
Test: LPA1 chemotaxis assay
Type: cell-based
Details: 100 nM LPA, read-out: inhibition of LPA-driven chemotaxis IC50
Description: Chemotaxis of the A2058 human melanoma cells was measured using the Neuroprobe ChemoTx® System plates (8 μM pore size, 5.7 mm diameter sites). The filter sites were coated with 0.001% fibronectin (Sigma) in 20 mM Hepes, pH 7.4 and allowed to dry. A2058 cells were serum-starved for 24 hours, then harvested with Cell Stripper and resuspended in DMEM containing 0.1% fatty-acid-free bovine serum albumin (BSA) to a concentration of 1×10^6/ml. Cells were mixed with an equal volume of test compound (2×) in DMEM containing 0.1% fatty-acid-free BSA and incubated at 37° C. for 15 minutes. LPA (100 nM in DMEM containing 0.1% fatty-acid-free BSA) or vehicle was added to each well of the lower chamber and 50 μl of the cell suspension/test compound mix was applied to the upper portion of the ChemoTx plate. Plates were incubated at 37° C. for three hours and then the cells removed from the upper portion by rinsing with PBS and scraping. The filter was dried then stained with HEMA 3 Staining System (Fisher Scientific). The absorbance of the filter was read at 590 nm and IC50s were determined using Symyx Assay Explorer.

For `Cc1noc(-c2ccc(-c3ccc(C4(C(=O)O)CC4)cc3)cc2)c1NC(=O)O[C@H](C)c1ccccc1` [Compound 1, 1-{4′-[3-Methyl-4-((R)-1-phenyl-ethoxycarbonylamino)-isoxazol-5-yl]-biphenyl-4-yl}-cyclopropanecarboxylic acid], which IC50 is on record?
Its IC50 is < 100 nM.
